The values below come from patent publication US10792295B2, “Compositions for management of Helicobacter pylori infections” (SAMI LABS LIMITED, priority 2017, dated 2020).

Format in all cases: cell-based
For assay [1], the system named is Helicobacter pylori ATCC 43504. The assay can be described thus: Well diffusion method, zones of inhibition. The note with it: ATCC43504, 72 h, H. pylori ATCC 43504, 1000 μg/well, 3 days, 37° C., microaerobic. How it is done: (§1) Helicobacter pylori ATCC 43504 and ATCC 700392 were purchased from the American Type Culture Collection (ATCC, Manassas, Va., USA). Cultures were grown in brain heart infusion (BHI) agar/broth (HiMedia, Mumbai India) supplemented with 7% (v/v) sheep blood or fetal bovine serum and incubated at 37° C. under microaerobic conditions (Na, 85%; 02, 5%; CO2, 10%) using an anaerobic chamber (Imset, Mumbai, India). Bacillus coagulans MTCC 5856 was grown in MRS media by adding inoculum (5% v/v) to the MRS broth and incubated at 37° C. for 24 h. After 24 h, the culture was centrifuged (5,000×g) to remove the cells and the supernatant was collected, concentrated 10-fold by lyophilization and filter sterilized through a 0.22 micron filter (Millipore, India). The cell-free supernatant was tested against H. pylori and 10-fold concentrated supernatant was also tested against H. pylori ATCC 43504 and ATCC 700392. Similar to above, BHI agar plates supplemented with 7% (v/v) fetal bovine serum were prepared containing a strain of Helicobacter pylori ATCC 43504 or ATCC 700392. Further, well was made in the BHI agar plates containing Helicobacter pylori ATCC 43504 or ATCC 700392. […] After incubation, the antibacterial activities were evaluated by measuring a diameter of the inhibition zone. […]
A general note: In agar diffusion tests the substance spreads into inoculated agar from a disc or well.

Assay [2] deals with Helicobacter pylori ATCC 700392. Nature of the assay: Well diffusion method, zones of inhibition. The note with it: ATCC700392, 72 h, H. pylori ATCC 700392, 1000 μg/well, 3 days, 37° C., microaerobic. How it is done: as §1
Assay [3] concerns Helicobacter pylori ATCC 43504. Nature of the assay: Minimum inhibitory concentration (MIC) determination, broth microdilution. The note with it: H. pylori ATCC 43504; 72 h, BHI broth with 7% FBS, no turbidity. How it is done: (§2) Helicobacter pylori ATCC 43504 and ATCC 700392 were purchased from the American Type Culture Collection (ATCC, Manassas, Va., USA). Cultures were grown in brain heart infusion (BHI) agar/broth (HiMedia, Mumbai India) supplemented with 7% (v/v) sheep blood or fetal bovine serum and incubated at 37° C. under microaerobic conditions (Na, 85%; 02, 5%; CO2, 10%) using an anaerobic chamber (Imset, Mumbai, India). Bacillus coagulans MTCC 5856 was grown in MRS media by adding inoculum (5% v/v) to the MRS broth and incubated at 37° C. for 24 h. After 24 h, the culture was centrifuged (5,000×g) to remove the cells and the supernatant was collected, concentrated 10-fold by lyophilization and filter sterilized through a 0.22 micron filter (Millipore, India). The cell-free supernatant was tested against H. pylori and 10-fold concentrated supernatant was also tested against H. pylori ATCC 43504 and ATCC 700392. The MICs of curcumin, β-glucogallin and mucic acid gallates extract and Piperine extract were determined as per the guidelines of Clinical and Laboratory Standards Institute (formerly the National Committee for Clinical Laboratory Standards). […] After incubation, plates were visually read for the absence or presence of turbidity. The minimum concentration of the compound concentration showing no turbidity was recorded as MIC.

For assay [4], the system named is Helicobacter pylori ATCC 700392. The assay is described as above. The note with it: H. pylori ATCC 700392; 72 h, BHI broth with 7% FBS, no turbidity. How it is done: as §2

What is called zone of inhibition is the extent of the growth-free halo in a diffusion test. Read a high zone of inhibition as a stronger effect on the plate. With `COc1cc(/C=C/C(=O)CC(=O)/C=C/c2ccc(O)c(OC)c2)ccc1O` [Curcumin], the zone of inhibition at 1000 µg/disc in assay [1] was 13 ± 1.2 mm; in assay [2], 14 ± 1.2 mm. The MIC range in assay [3] and in assay [4] was 125 to 250 µg/mL in each case.
